Tests used:
[1] = tested on: Staphylococcus aureus; assay: Zone of Inhibition testing AATCC-147 (modified), pellets in agar; type: cell-based; conditions: text summary of Table VIII
Method: A set of AETs run measured Zone of Inhibition, ZOI (AATCC-147) and pellets from runs 1 to 5 were used. Pellets were placed in an agar growth medium that had been streaked with parallel lines of Staphylococcus aureus and incubated for 24 hours at 37° C. The final plates were photographed and measured for length of ZOI in mm.

[2] = monomeric form; cited from earlier work
[3] = tested on: Rabbit; conditions: cited from earlier work
[4] = tested on: Rat; conditions: cited from earlier work
[5] = heavy gauge vinyl pool liner and film of vinyl baby pants; cited from earlier work

## Oc1cc(Cl)ccc1Oc1ccc(Cl)cc1Cl [TRICLOSAN, 2,4,4′-trichloro-2′-hydroxy diphenol ether]
[1]
  ZOI (in words): significant ZOI

## CCCCCCCCCCCCCCCCCC[N+](C)(C)CCC[Si](OC)(OC)OC.[Cl-] [Ref #1, 3-(trimethoxysilyl) propyl-N-octadecyl-N,N-dimethyl ammonium chloride]
[2]
  Vapor pressure: 5.8 × 10^−14 mmHg

## c1ccc2c(c1)Oc1ccccc1[As]2O[As]1c2ccccc2Oc2ccccc21 [OBPA, 10,10′-oxybisphenoxarsine]
[3]
  Dermal LD50: 121 mg/kg
[4]
  Oral LD50: 37 mg/kg
[5]
  Leaching from plastics: leaches very slowly

From US20110233810A1, “ANTIMICROBIAL PLASTIC COMPOSITIONS AND METHODS FOR PREPARING SAME” (W. M. Barr & Company, priority 2010, published 2011)
